Experimental findings from patent US20220373536A1, “HIGH-CONTENT ANALYSIS METHOD” (priority 2019, published 2022) are described below.

This experiment has as its system plasma cells (target cells, CD138+; U-266 or NCI-H929). The experiment is described as follows: ICNP-based ADCC assay in microwells, NK cells against plasma cells / U-266 cells under anti-CD38 stimulation, time-lapse PI readout. It counts as cell-based.

Excerpt: EDTA bone marrow samples were collected from 13 patients with multiple myeloma (MM, 7 de novo and 6 relapses). 8 primary samples were processed through density centrifugation (Ficoll-Pacque; Merck) in order to obtain mononuclear cells while preserving the original composition of the effector (E) and target (T) cells, i.e., NK and plasma cells, respectively. 5 samples were processed with CD138 Antibody coupled to magnetic beads (Miltenyi Biotec) to obtain a population of white blood cells (WBC), a population which comprises NK cells and is depleted of plasma cells.
The resulting cells were co-cultured with U-266 or NCI-H929 cell lines as target cells. […]
The cells from primary or co-culture samples were seeded in 96-well plates, with a final concentration of 2×10^5 cells/well, with variable E:T ratios. […] Each experiment was analyzed by time lapse in fluorescence microscopy for up to 12 hours.
The images for said plurality of microwells are then acquired and, with a detection algorithm, the areas of interest, where each area of interest corresponds to a single cell, for each of said areas of interest, properties which comprise localization, the intensity of certain markers in each fluorescence channel, the cell area, the position of the center of gravity and the morphology are then measured. […]

As to Daratumumab, the “plasma cell death with respect to plasma cell - NK cell distance” value (10 μg/mL, 1,200 microwells, plasma cells in contact with NK cells, decreases as distance increases, FIG. 11E) is on record as “maximum”. The “death rate of the plasma cells belonging to pattern 2 (spontaneous death or direct effect of the antibody)” value (10 μg/mL, pattern 2 microwells (only plasma cells, no NK)) is given as 10.86%.
